From patent US20010001104A1, “Thienopyridine compounds, their production and use” (priority 1998, published 2001)
Where two headings read alike, the source gives them in different places.

What was measured:
[1] = target: T1, GnRH receptors (Rattus norvegicus, UniProt P30969); assay: 125I-leuprorelin binding inhibition, rat pituitary anterior lobe membrane fraction; conditions: for inhibition at 1 µM: read-out: binding inhibition rate (%) Rat (1 μM); for IC50: Hill plot
T1 construct: Anterior lobes of the pituitary glands were isolated from forty Wistar rats; from tissue; host or cells: anterior lobe of the pituitary gland, male Wistar rats
T1 sequence (P30969 1-327): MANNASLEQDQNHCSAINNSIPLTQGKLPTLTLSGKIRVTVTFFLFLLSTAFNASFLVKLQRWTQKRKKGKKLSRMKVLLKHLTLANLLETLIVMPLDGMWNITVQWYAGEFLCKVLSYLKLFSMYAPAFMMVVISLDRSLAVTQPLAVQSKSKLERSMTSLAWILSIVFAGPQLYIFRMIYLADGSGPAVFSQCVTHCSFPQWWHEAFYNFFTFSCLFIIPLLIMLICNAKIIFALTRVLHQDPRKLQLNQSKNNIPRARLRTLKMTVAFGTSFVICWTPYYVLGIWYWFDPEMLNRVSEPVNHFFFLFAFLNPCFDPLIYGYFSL
Procedure: After stirring, 10 μl of 0.001% H2O2 was added, and a reaction was carried out at room temperature for 20 minutes. By adding 700 μl of a 0.05% TFA (trifluoroacetic acid) solution, the reaction was stopped, followed by purification by reversed-phase HPLC. […] Anterior lobes of the pituitary glands were isolated from forty Wistar rats (8 weeks old, male), and washed with ice-cooled homogenate buffer [25 mM Tris (tris(hydroxymethyl)aminomethane)-HCl, 0.3M sucrose, 1 mM EGTA (glycol-etherdiamine-N,N,N′,N′-tetraacetic acid), 0.25 mM PMSF (phenylmethylsulfonyl fluoride), 10 U/ml aprotinin, […] pepstatin, […] leupeptin, […], 0.03% sodium azide, pH 7.5]. The pituitary tissue was floated in 2 ml of the homogenate buffer and homogenized using a Polytron homogenizer. The homogenate was centrifuged at 700×g for 15 minutes. The supernatant was taken in an ultracentrifuge tube and centrifuged at 100, 000×g for 1 hour to provide a membrane fraction pellet. This pellet was suspended in 2 ml of assay buffer [25 mM Tris-HCl, 1 mM EDTA (ethylenediaminetetraacetic acid), 0.1% BSA (bovine serum albumin), 0.25 mM PMSF, 1 mg/ml pepstatin, 20 mg/ml leupeptin, […], 0.03% sodium azide, pH 7.5) and the suspension was centrifuged at 100,000×g for 1 hour. The membrane fraction recovered as a pellet was resuspended in 10 ml of assay buffer, divided into portions, preserved at −80° C. and thawed when needed. […] Where the rat or bovine pituitary anterior lobe membrane fraction was used, the reaction was conducted at 4° C. for 90 minutes. Where the membrane fraction of the CHO with human GnRH receptors expressed was used, the reaction was carried out at 25° C. for 60 minutes. After each reaction, the reaction mixture was aspirated and filtered through a polyethyleneimine-treated Whatman glass filter (GF-F). […] The expression (TB-SB)/(TB-NSB)×100 (where SB= radioactivity with the compound added, TB=maximum bound radioactivity, NSB=nonspecifically bound radioactivity) was calculated to find the binding inhibition rate (%) of each test compound.

[2] = target: T2, human GnRH receptor (Homo sapiens, UniProt P30968); assay: 125I-leuprorelin binding inhibition, CHO cell membrane fraction containing human GnRH receptor
T2 construct: expressed in transfected cells; host or cells: CHO (Chinese hamster ovarian) cells
T2 sequence (P30968 1-328): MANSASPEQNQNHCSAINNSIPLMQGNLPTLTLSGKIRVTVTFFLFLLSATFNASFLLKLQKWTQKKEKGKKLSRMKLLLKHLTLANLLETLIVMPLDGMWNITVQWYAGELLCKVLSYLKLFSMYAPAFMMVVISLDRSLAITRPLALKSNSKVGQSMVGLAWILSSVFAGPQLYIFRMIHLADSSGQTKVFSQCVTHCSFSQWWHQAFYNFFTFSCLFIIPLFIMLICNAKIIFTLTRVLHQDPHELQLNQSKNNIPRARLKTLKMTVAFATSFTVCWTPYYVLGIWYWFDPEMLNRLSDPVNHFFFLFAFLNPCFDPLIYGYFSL
Procedure: After stirring, 10 μl of 0.001% H2O2 was added, and a reaction was carried out at room temperature for 20 minutes. By adding 700 μl of a 0.05% TFA (trifluoroacetic acid) solution, the reaction was stopped, followed by purification by reversed-phase HPLC. […] To the cell pellet, 10 ml of a cell homogenate buffer (10 mM NaHCO3, 5 mM EDTA, pH 7.5) was added, followed by homogenization using the Polytron homogenizer. After centrifugation at 400×g for 15 minutes, the supernatant was transferred to an ultracentrifugation tube and centrifuged at 100,000×g for 1 hour to yield a membrane fraction precipitate. This precipitate was suspended in 2 ml of an assay buffer and centrifuged at 100,000×g for 1 hour. The membrane fraction recovered as a precipitate was again suspended in 20 ml of the assay buffer, dispensed, and stored at −80° C. before use upon thawing. […] Where the rat or bovine pituitary anterior lobe membrane fraction was used, the reaction was conducted at 4° C. for 90 minutes. Where the membrane fraction of the CHO with human GnRH receptors expressed was used, the reaction was carried out at 25° C. for 60 minutes. After each reaction, the reaction mixture was aspirated and filtered through a polyethyleneimine-treated Whatman glass filter (GF-F). […] The expression (TB-SB)/(TB-NSB)×100 (where SB= radioactivity with the compound added, TB=maximum bound radioactivity, NSB=nonspecifically bound radioactivity) was calculated to find the binding inhibition rate (%) of each test compound.

[3] = test system: blood LH; assay: Suppression of blood LH in castrated monkeys; assay type: in vivo, cynomolgus monkeys (Macaca fascicularis); conditions: castrated male cynomolgus monkeys; 30 mg/kg oral; values only in FIG. 1
Procedure: The compound produced in Example 1-2 was orally administered to castrated male cynomolgus monkeys (Macaca fascicularis), and blood LH was quantified. The male cynomolgus monkeys, used at 3 years 8 months to 7 years 7 months of age at time of experimentation, had been castrated more than half a year prior to the examination. Test animals [n =2; compound (1) and compound (2)] were given 30 mg/kg (3 ml/kg) of the compound suspended in 0.5% methyl cellulose at a final concentration of 1% by oral administration, and control animals [n=3; control (1), control (2) and control (3)] were given 3 ml/kg of the 0.5% methyl cellulose dispersant alone by oral administration. […]
Plasma LH concentrations were determined by a bioassay using mouse testicular cells. […] The testosterone concentration in the culture supernatant was determined by a radioimmunoassay (CIS Diagnostics Company), and the LH concentration in the test monkey plasma was calculated from the standard curve for the standard equine LH.
For the control (1), the control (2), and the control (3), changes over time in the LH concentrations in each animal are expressed as percent ratios to the respective reference values, which comprise the LH concentrations immediately before administration in each control animal (cynomolgus monkey). […]

[4] = rat pituitary anterior lobe membrane fraction, 125I-leuprorelin

| SMILES | melting point [°C] | further results |
| --- | --- | --- |
| CC(C)C(=O)c1cn(Cc2c(F)cccc2F)c2sc(-c3ccc(NC(=O)[C@H](C)CO)cc3)c(CN(C)Cc3ccccc3)c2c1=O.Cl | 214 to 216 |  |
| CC(C)C(=O)c1cn(Cc2c(F)cccc2F)c2sc(-c3ccc(NC(=O)C(C)(C)O)cc3)c(CN(C)Cc3ccccc3)c2c1=O.Cl | 213 to 215 |  |
| CC(C)C(=O)c1cn(Cc2c(F)cccc2F)c2sc(-c3ccc(NC(=O)C4(O)CC4)cc3)c(CN(C)Cc3ccccc3)c2c1=O.Cl | 220 to 222 |  |
| CC(C)C(=O)c1cn(Cc2c(F)cccc2F)c2sc(-c3ccc(NC(=O)CC(C)(C)O)cc3)c(CN(C)Cc3ccccc3)c2c1=O.Cl | 216 to 218 |  |
| CONC(=O)Nc1ccc(-c2sc3c(c2CN(C)Cc2ccccc2)c(=O)c(C(=O)C(C)C)cn3Cc2c(F)cccc2F)cc1.Cl | 225 to 230 |  |
| CC(C)C(=O)c1cn(Cc2c(F)cccc2F)c2sc(-c3ccc(NC(=O)CO)cc3)c(CN(C)Cc3ccccc3)c2c1=O.Cl | 197 to 199 |  |
| CC(C)C(=O)c1cn(Cc2c(F)cccc2F)c2sc(-c3ccc(NC(=O)C4CC4)cc3)c(CN(C)Cc3ccccc3)c2c1=O.Cl [Example 1-2, 3-(N-benzyl-N-methylaminomethyl)-4,7-dihydro-5-isobutyryl-7-(2,6-difluorobenzyl)-2-(4-cyclopropanecarbonylaminophenyl)-4-oxothieno[2,3-b]pyridine Hydrochloride] | 254 to 256 | inhibition at 1 µM ([1]; 1 μM compound, rat pituitary anterior lobe membrane fraction, 125I-leuprorelin, 4° C., 90 minutes): 96%; IC50 [1, 4]: 0.06 µM; inhibition at 20 µM ([2]; 20 μM compound, CHO membrane fraction with human GnRH receptors, 125I-leuprorelin, 25° C., 60 minutes, read-out: binding inhibition rate (%) Human (20 μM)): 102%; IC50 ([2]; CHO membrane fraction with human GnRH receptors, 125I-leuprorelin, Hill plot, read-out: IC50 value (μM) Human): 0.0001 µM; plasma LH concentrations [3]: suppression of plasma LH concentrations |
| CC(C)C(=O)c1cn(Cc2c(F)cccc2F)c2sc(-c3ccc(NC(=O)C(C)CO)cc3)c(CN(C)Cc3ccccc3)c2c1=O (stereo not shown) [Example 3, 3-(N-benzyl-N-methylaminomethyl)-4,7-dihydro-5-isobutyryl-7-(2,6-difluorobenzyl)-2-[4-(3-hydroxy-2-methylpropionylamino)phenyl]-4-oxothieno[2,3-b]pyridine] | 161 to 162 | IC50 [1, 4]: 0.6 µM; inhibition at 1 µM [1]: 62%; IC50 [2]: 0.0002 µM |
| CC(C)C(=O)Nc1ccc(-c2sc3c(c2CN(C)Cc2ccccc2)c(=O)c(C(=O)C(C)(C)O)cn3Cc2c(F)cccc2F)cc1 [Example 7, 3-(N-benzyl-N-methylaminomethyl)-4,7-dihydro-7-(2,6-difluorobenzyl)-2-(4-isobutyrylaminophenyl)-5-(2-hydroxy-2-methylpropionyl)-4-oxothieno[2,3-b]pyridine] | 170 to 172 |  |
| CC(C)C(=O)c1cn(Cc2c(F)cccc2F)c2sc(-c3ccc(NC(=O)[C@H](C)CO)cc3)c(CN(C)Cc3ccccc3)c2c1=O [Example 10-1, (R)-4,7-dihydro-2-[4-(3-hydroxy-2-methylpropionylamino)phenyl]-7-(2,6-difluorobenzyl)-3-(N-benzyl-N-methylaminomethyl)-5-isobutyryl-4-oxothieno[2,3-b]pyridine] | 161 to 162 |  |
| CC(C)C(=O)c1cn(Cc2c(F)cccc2F)c2sc(-c3ccc(NC(=O)C(C)(C)O)cc3)c(CN(C)Cc3ccccc3)c2c1=O [Example 11-1, 4,7-dihydro-2-[4-(2-hydroxy-2-methylpropionylamino)phenyl]-7-(2,6-difluorobenzyl)-3-(N-benzyl-N-methylaminomethyl)-5-isobutyryl-4-oxothieno[2,3-b]pyridine] | 178 to 180 |  |
| CN(Cc1ccccc1)Cc1c(-c2ccc(NC(=O)C3(O)CC3)cc2)sc2c1c(=O)c(C(=O)c1ccccc1)cn2Cc1c(F)cccc1F [Example 21] | 186 to 188 |  |
| CN(Cc1ccccc1)Cc1c(-c2ccc(NC(=O)C(C)(C)O)cc2)sc2c1c(=O)c(C(=O)c1ccccc1)cn2Cc1c(F)cccc1F [Example 22, 3-(N-benzyl-N-methylaminomethyl)-5-benzoyl-7-(2,6-difluorobenzyl)-4,7-dihydro-2-[4-(2-hydroxy-2-methylpropionylamino)phenyl]-4-oxothieno[2,3-b]pyridine] | 222 to 223 |  |
| C[C@H](CO)C(=O)Nc1ccc(-c2sc3c(c2CN(C)Cc2ccccc2)c(=O)c(C(=O)c2ccccc2)cn3Cc2c(F)cccc2F)cc1 [Example 23] | 145 to 146 |  |
